Test results from patent US20190105367A1, “ANTIMICROBIAL 4-OXOQUINOLIZINES” (Emergent Product Development Gaithersburg Inc., priority 2011, published 2019).
Values after ≈ are worked out from the molar mass of the structure shown. Where two headings read alike, the source gives them in different places.

Assays:
[1] = system: strains of A. baumannii and one strain of Acinetobacter sp.; assay: MIC with sub-inhibitory concentrations (0.25x MIC) of polymyxin B, panel of Acinetobacter strains (Example 4); assay type: cell-based; conditions: 2nd experiment; 0.06 μg/ml polymyxin B; all strains except the ATCC strain
A. baumannii A473 [2] = assay: MIC without and with sub-inhibitory polymyxin B (Example 4); assay type: cell-based, Acinetobacter baumannii; conditions: +0.06 μg/ml PB, 2nd experiment
A. baumannii A489 = assay: as above; assay type: cell-based, Acinetobacter baumannii; conditions: for MIC without PB/MIC + PB: A. baumannii A489; for MIC: Acinetobacter baumannii
A. baumannii NCTC 13301 [3] = assay: as above; assay type: cell-based, Acinetobacter baumannii; conditions: +[…] PB, 2nd experiment
[4] = system: Acinetobacter sp. (H064200250); assay: as above; assay type: cell-based; conditions: for MIC: Acinetobacter
A. baumannii J2 [5] = assay: as above; assay type: cell-based, Acinetobacter baumannii
A. baumannii A329 [6] = assay: Preliminary MBC without and with sub-inhibitory polymyxin B (Example 4); assay type: cell-based, Acinetobacter baumannii; conditions: Acinetobacter baumannii, A329, A. baumannii A329, +0.06 μg/ml PB, 2nd experiment, read-out: MBC
A. baumannii A472 [7] = assay: as above; assay type: cell-based, Acinetobacter baumannii; conditions: Acinetobacter baumannii, preliminary MBC
A. baumannii A387 [8] = assay: as above; assay type: cell-based, Acinetobacter baumannii; conditions: Acinetobacter baumannii
A. baumannii A401 [9] = assay: MIC without and with sub-inhibitory polymyxin B (Example 4); assay type: cell-based, Acinetobacter baumannii; conditions: for MIC: Acinetobacter baumannii
A. baumannii NCTC 13301 [10] = assay: Preliminary MBC without and with sub-inhibitory polymyxin B (Example 4); assay type: cell-based, Acinetobacter baumannii; conditions: Acinetobacter baumannii
In short: (§1)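 Read-out: the minimum concentration at which colonies were reduced by ca. 90% relative to positive control, usually seen as isolated colonies or a clear plate. Plates had been kept 18-20 hours at 37° C beforehand.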

A. baumannii A473 [11] = assay: as above; assay type: cell-based, Acinetobacter baumannii; conditions: Acinetobacter baumannii, A473, A. baumannii A473, +0.06 μg/ml PB, 2nd experiment, read-out: MBC
In short: as §1

A. baumannii A390 [12] = assay: as above; assay type: cell-based, Acinetobacter baumannii; conditions: Acinetobacter baumannii, A390, A. baumannii A390, +0.06 μg/ml PB, 2nd experiment, read-out: MBC
In short: as §1

A. baumannii A14 [13] = assay: as above; assay type: cell-based, Acinetobacter baumannii; conditions: 2nd experiment
In short: as §1

A. baumannii ATCC 19606 = assay: MIC without and with sub-inhibitory polymyxin B (Example 4); assay type: cell-based, Acinetobacter baumannii; conditions: for MIC without PB/MIC + PB: A. baumannii ATCC 19606; for MIC: Acinetobacter baumannii
A. baumannii J2 [14] = assay: Preliminary MBC without and with sub-inhibitory polymyxin B (Example 4); assay type: cell-based, Acinetobacter baumannii; conditions: Acinetobacter baumannii, preliminary MBC
A. baumannii A390 [15] = assay: MIC without and with sub-inhibitory polymyxin B (Example 4); assay type: cell-based, Acinetobacter baumannii; conditions: +0.06 μg/ml PB, 2nd experiment
A. baumannii A472 [16] = assay: as above; assay type: cell-based, Acinetobacter baumannii; conditions: for MIC: Acinetobacter baumannii
A. baumannii NCTC 13301 [17] = assay: as above; assay type: cell-based, Acinetobacter baumannii
A. baumannii A387 [18] = assay: as above; assay type: cell-based, Acinetobacter baumannii; conditions: for MIC without PB/MIC + PB: A. baumannii A387; for MIC: Acinetobacter baumannii
A. baumannii A401 [19] = assay: Preliminary MBC without and with sub-inhibitory polymyxin B (Example 4); assay type: cell-based, Acinetobacter baumannii; conditions: Acinetobacter baumannii
A. baumannii A14 [20] = assay: MIC without and with sub-inhibitory polymyxin B (Example 4); assay type: cell-based, Acinetobacter baumannii; conditions: 2nd experiment
A. baumannii A14 [21] = assay: as above; assay type: cell-based, Acinetobacter baumannii; conditions: 1st experiment
A. baumannii A329 [22] = assay: as above; assay type: cell-based, Acinetobacter baumannii; conditions: +0.06 μg/ml PB, 2nd experiment
[23] = A. baumannii A14, +0.06 μg/ml PB
[24] = ratio, PB 0.06 μg/ml, 1st experiment

## Cc1c(-c2ccc(N)cc2)ccn2c(=O)c(C(=O)O)cc(C3CC3)c12 [Compound 8, 8-(4-amino-phenyl)-1-cyclopropyl-9-methyl-4-oxo-quinolizine-3-carboxylic acid]
[1]
  MIC range with PB (0.25x MIC) Oct. 14, 2008 n = 11: ≤0.03 to 8 µg/mL
A. baumannii A473 [2]; A. baumannii A473
  MIC without PB/MIC + PB: 8
A. baumannii A473 [2]; Acinetobacter baumannii, A473, A. baumannii A473, read-out: MIC
  MIC: 0.5 µg/mL (≈ 1.5 µM)
A. baumannii A489; +[…] PB, 2nd experiment
  MIC without PB/MIC + PB: ≥256
A. baumannii A489; ratio, PB […], 1st experiment
  MIC without PB/MIC + PB: ≥64
A. baumannii A489; A489, A. baumannii A489, +[…] PB, 2nd experiment, read-out: MIC
  MIC: ≤ 0.03 µg/mL
A. baumannii A489; A489, read-out: MIC +[…] PB, A. baumannii A489, +[…] polymyxin B, 1st experiment
  MIC: ≤ 0.03 µg/mL
A. baumannii NCTC 13301 [3]; A. baumannii NCTC 13301
  MIC without PB/MIC + PB: 32
A. baumannii NCTC 13301 [3]; Acinetobacter baumannii, NCTC13301, A. baumannii NCTC 13301, read-out: MIC
  MIC: 0.5 µg/mL (≈ 1.5 µM)
[4]; Acinetobacter spp. H064200250 (OXA51), +[…] PB, 2nd experiment
  MIC without PB/MIC + PB: 32
[4]; Acinetobacter spp. H064200250, ratio, PB […], 1st experiment
  MIC without PB/MIC + PB: 32
[4]; Acinetobacter spp. H064200250 (OXA51), +[…] PB, 2nd experiment, read-out: MIC
  MIC: 0.125 µg/mL (≈ 0.374 µM)
[4]; read-out: MIC +[…] PB, Acinetobacter spp. H064200250, +[…] polymyxin B, 1st experiment
  MIC: 0.06 µg/mL (≈ 0.179 µM)
A. baumannii J2 [5]; A. baumannii J2, +[…] PB, 2nd experiment
  MIC without PB/MIC + PB: ≥128
A. baumannii J2 [5]; A. baumannii J2, +[…] polymyxin B, 1st experiment
  MIC +[…] PB: 0.125 µg/mL (≈ 0.374 µM)
A. baumannii J2 [5]; A. baumannii J2, ratio, PB […], 1st experiment
  MIC without PB/MIC + PB: 64
A. baumannii J2 [5]; Acinetobacter baumannii, J2, A. baumannii J2, +[…] PB, 2nd experiment, read-out: MIC
  MIC: ≤ 0.03 µg/mL
A. baumannii A329 [6]
  MBC: 2 µg/mL (≈ 5.98 µM)
A. baumannii A472 [7]; A472, A. baumannii A472, +[…] PB, 2nd experiment, read-out: MBC
  MBC: 0.06 µg/mL (≈ 0.179 µM)
A. baumannii A472 [7]; A472, read-out: MBC +[…] PB, A. baumannii A472, +[…] polymyxin B, 1st experiment
  MBC: ≤ 0.03 µg/mL
A. baumannii A387 [8]; A387, A. baumannii A387, +0.06 μg/ml PB, 2nd experiment, read-out: MBC
  MBC: 0.25 µg/mL (≈ 0.748 µM)
A. baumannii A387 [8]; A387, read-out: MBC +0.06 μg/ml PB, A. baumannii A387, +0.06 μg/ml polymyxin B, 1st experiment
  MBC: ≤ 0.03 µg/mL
A. baumannii A401 [9]; A baumannii A 401, ratio, PB 0.06 μg/ml, 1st experiment
  MIC without PB/MIC + PB: ≥1024
A. baumannii A401 [9]; A401, A baumannii A 401, +0.06 μg/ml PB, 2nd experiment, read-out: MIC
  MIC: 0.25 µg/mL (≈ 0.748 µM)
A. baumannii A401 [9]; A401, read-out: MIC +0.06 μg/ml PB, A baumannii A 401, +0.06 μg/ml polymyxin B, 1st experiment
  MIC: ≤ 0.03 µg/mL
A. baumannii NCTC 13301 [10]; NCTC13301, A. baumannii NCTC 13301, +[…] PB, preliminary MBC, 2nd experiment, read-out: MBC
  MBC: 0.5 µg/mL (≈ 1.5 µM)
A. baumannii NCTC 13301 [10]; NCTC13301, read-out: MBC +[…] PB
  MBC: 1 µg/mL (≈ 2.99 µM)
A. baumannii A473 [11]
  MBC: 0.5 µg/mL (≈ 1.5 µM)
A. baumannii A390 [12]
  MBC: 0.5 µg/mL (≈ 1.5 µM)
A. baumannii A14 [13]; [23]
  MBC: 0.5 µg/mL (≈ 1.5 µM)
A. baumannii A14 [13]; Acinetobacter baumannii, A14, A. baumannii A14, without PB, read-out: MBC
  MBC: 16 µg/mL (≈ 47.9 µM)
A. baumannii ATCC 19606; +0.06 μg/ml PB, 2nd experiment
  MIC without PB/MIC + PB: ≥8
A. baumannii ATCC 19606; [24]
  MIC without PB/MIC + PB: ≥32
A. baumannii ATCC 19606; ATCC19606, A. baumannii ATCC 19606, +0.06 μg/ml PB, 2nd experiment, read-out: MIC
  MIC: ≤ 0.03 µg/mL
A. baumannii ATCC 19606; ATCC19606, read-out: MIC +0.06 μg/ml PB, A. baumannii ATCC 19606, +0.06 μg/ml polymyxin B, 1st experiment
  MIC: ≤ 0.03 µg/mL
A. baumannii J2 [14]; J2, A. baumannii J2, +[…] PB, 2nd experiment, read-out: MBC
  MBC: ≤ 0.03 µg/mL
A. baumannii J2 [14]; J2, read-out: MBC +[…] PB, A. baumannii J2, +[…] polymyxin B, 1st experiment
  MBC: 0.125 µg/mL (≈ 0.374 µM)
A. baumannii A390 [15]; A. baumannii A390
  MIC without PB/MIC + PB: 32
A. baumannii A390 [15]; Acinetobacter baumannii, A390, A. baumannii A390, read-out: MIC
  MIC: 0.5 µg/mL (≈ 1.5 µM)
A. baumannii A472 [16]; A. baumannii A472, ratio, PB […], 1st experiment
  MIC without PB/MIC + PB: ≥128
A. baumannii A472 [16]; A472, A. baumannii A472, +[…] PB, 2nd experiment, read-out: MIC
  MIC: 0.06 µg/mL (≈ 0.179 µM)
A. baumannii A472 [16]; A472, read-out: MIC +[…] PB, A. baumannii A472, +[…] polymyxin B, 1st experiment
  MIC: ≤ 0.03 µg/mL
A. baumannii NCTC 13301 [17]; A. baumannii NCTC 13301, ratio, PB […], 1st experiment
  MIC without PB/MIC + PB: 64
A. baumannii NCTC 13301 [17]; Acinetobacter baumannii, NCTC13301, read-out: MIC +[…] PB
  MIC: 0.5 µg/mL (≈ 1.5 µM)
A. baumannii A387 [18]; +0.06 μg/ml PB, 2nd experiment
  MIC without PB/MIC + PB: 2
A. baumannii A387 [18]; [24]
  MIC without PB/MIC + PB: ≥64
A. baumannii A387 [18]; A387, A. baumannii A387, +0.06 μg/ml PB, 2nd experiment, read-out: MIC
  MIC: 0.5 µg/mL (≈ 1.5 µM)
A. baumannii A387 [18]; A387, read-out: MIC +0.06 μg/ml PB, A. baumannii A387, +0.06 μg/ml polymyxin B, 1st experiment
  MIC: ≤ 0.03 µg/mL
A. baumannii A401 [19]; A401, A baumannii A 401, +0.06 μg/ml PB, 2nd experiment, read-out: MBC
  MBC: 0.25 µg/mL (≈ 0.748 µM)
A. baumannii A401 [19]; A401, read-out: MBC +0.06 μg/ml PB, A baumannii A 401, +0.06 μg/ml polymyxin B, 1st experiment
  MBC: ≤ 0.03 µg/mL
A. baumannii A14 [20]; [23]
  MIC: 0.5 µg/mL (≈ 1.5 µM)
  MIC without PB/MIC + PB: 16
A. baumannii A14 [20]; Acinetobacter baumannii, A14, A. baumannii A14, without PB, read-out: MIC
  MIC: 8 µg/mL (≈ 23.9 µM)
A. baumannii A14 [21]; +0.06 μg/ml polymyxin B
  MIC +0.06 μg/ml PB: 1 µg/mL
A. baumannii A14 [21]; ratio, PB 0.06 μg/ml
  MIC without PB/MIC + PB: 32
A. baumannii A329 [22]; A. baumannii A329
  MIC without PB/MIC + PB: 4
A. baumannii A329 [22]; Acinetobacter baumannii, A329, A. baumannii A329, read-out: MIC
  MIC: 2 µg/mL (≈ 5.98 µM)
